Assay results from patent publication US12553889B2, “Small molecules targeting the intrinsically disordered structural ensemble of α-synuclein protect against diverse α-synuclein mediated dysfunctions” (The Regents of the University of California, priority 2019, dated 2026).
Entries after “also recorded” stand apart in the source; their conditions may differ.

Key:
αSyn [1] = target: T1, αSyn (Homo sapiens, UniProt P37840, Q99C); assay: αSyn FRET (Cy3/Cy5) oligomerization assay; type: biochemical
T1 construct: made in house; host or cells: E. coli BL21(DE3), pET28b
Procedure: For the FRET oligomerization assay, 10 μM each of αSyn-Q-C(position number)Cy3 (donor) and αSyn-Q(position number)C-Cy5 (acceptor) in PBS (pH 7.4) were dispensed into black/clear bottom 384-well plates (Greiner) using a Mantis liquid handler (Formulatrix). The plate was sealed with AbsorbMax film (Sigma-Aldrich) and incubated at 37° C. The FRET between donor and acceptor was measured on a SpectraMax M5 Microplate Reader (Molecular Devices). An excitation wavelength of 525 nm for αSyn-Cy3 (donor), and emission wavelengths of 570 nm and 670 nm for αSyn-Cy3 (donor) and αSyn-Cy5 (acceptor) respectively were used. The plate reader PTM sensitivity is set to medium and assays executed without mixing. The signals are read at 10 minute intervals for 99 hours at 37° C. Efficiency of FRET was calculated as follows: EFRET=IAcceptor/IDonor, in which IAcceptor is acceptor emission intensity, IDonor is donor emission intensity.
• 1. Single point mutation (x to Cys) is introduced to αSyn. • 2. Cy3 and Cy5 are used as FRET probes Brief Procedure: Label αSyn Mutant with Cy3/Cy5 Dyes: • Incubate purified αSyn Q99C with 1 mM TCEP at 4° C. for 3 hours to reduce Cys; • Dissolve Cy3-maleimide or Cy5-maleimide (GE Healthcare) in DMSO; • Add 10× molar excess of dye to αSyn Q99C; • Incubate at 4° C. overnight; • Remove excess dye by HiTrap Desalting column (GE Healthcare); FRET Assay • Mix the following: • αSyn-Q99C-Cy3 5 uM • αSyn-Q99C-Cy5 5 uM
Measure the fluorescence from Cy3 and Cy5 at 37° C. for 99 hours on a plate reader (SpectraMax M5, Molecular Devices).

αSyn [2] = target: αSyn (Homo sapiens, UniProt P37840); assay: αSyn split Gaussia luciferase (GLuc) biochemical oligomerization assay; parameters: His tag; made in house; host or cells: E. coli BL21(DE3), pET28b; details: 24 hours; for impact on αSyn oligomerization (GLuc complementation): 100 μM compound, 12.5 μM of each tagged synuclein; for impact on αSyn oligomerization relative to other active compounds (GLuc): 100 μM
Procedure: A mixture of purified αSyn fused at its C-terminus with either the N-Terminal or the C-terminal half of Gaussia luciferase was incubated and the formation of oligomers monitored by reconstituted luciferase activity (FIG. 9, GLuc). For comparison, fibrillization of αSyn was measured in parallel samples by measuring the fluorescence of the dye Thioflavin T (ThT) as is widely used in the field (FIG. 9, ThT). […] The αSyn-Split Gluc tags have been used to detect αSyn oligomerization in cell models via transfection and expression of DNA encoding αSyn fused to split Gluc tags, but it has not previously been used in a biochemical assay using purified proteins as shown here.
Five to […] each of αSyn-GLuc1 and μM αSyn-GLuc2, (N-terminal or C-terminal fragment of GLuc fused to the C-terminus of αSyn see Example 6) in a buffer consisting of 1 mM MgCl2, 1 mM ADP, 50 mM Na3PO4, 0.02% NaN3 and 1 mM DTT at pH 7.4, were incubated at 37° C. in a thermal cycler (BioRad DNA Engine PTC-200). In experiments in which fibrillization was also measured, samples were incubated in an air incubator with shaking at 1000 rpm. At various time points (typically 0, 6, 12, and 24 hours), Gaussia luciferase activity was quantified using a BioLux Gaussia Luciferase Assay Kit (NEB) according to the manufacturer's instructions and read on a SpectraMax M5 Microplate Reader (Molecular Devices) with 5 minute delay after the addition of substrate and 3 sec integration time reading each well.
• Mix αSyn-GLuc1 and αSyn-GLuc2 at a final concentration of 10 μM each; • Incubate at 37° C. with shaking at 1000 rpm for 120 hours; • Take aliquot at 0/3/6/12/24/48/72/96/120 hour for analysis by Gaussia luciferase activity assay and ThT assay Methods Gaussia Luciferase Assay (According to BioLux Kit Manual): • 1. Thaw reaction buffer and stabilizer; • 2. Make working solution, for each reaction: • Reaction Buffer 50 μL • BioLux Stabilizer 8 μL • Substrate 0.5 μL • 3. Mix well and wait 5 minutes to use the working solution; • 4. Take out 10 μL GLuc sample and put on white 96-well plates; • 5. Add 50 μL working solution, mix well and wait 3.5 minutes; • 6. Read on the plate reader at 480 nm ThT Assay: • 1. Dilute 1 mM Thioflavin T (M.W. 319 Da) stock in PBS to 25 μM final concentration (1:40 dilution) • 2. Pipet 95 μL of the 25 μM Thioflavin T per well of 384 well plate. • 3. Pipet αSyn fibril up and down to mix, add 5 μL to wells with Thioflavin T • 4. For controls, include 5 μL PBS alone. • 5. Incubate at room temperature for 15 min to 1 hour. • 6. Read plate (excitation 440 nm, emission 482 nm). Method Used to Screen 66 HT-CM-SPR Compounds Using αSyn-GLuc:
Reaction mix is added into 96-well PCR plate containing:
Reaction: • αSyn-GLuc1 12.5 μM • αSyn-GLuc2 12.5 μM • Compound 0/12.5/25/50/75/100 μM in DMSO 0.2% • Negative: DMSO 0.2%: • 37 degree (PCR), no shaking

| Structure (SMILES) | activity in FRET αSyn oligomerization assay (αSyn [1]) | impact on αSyn oligomerization (GLuc complementation) (αSyn [2]) | impact on αSyn oligomerization relative to other active compounds (GLuc) (αSyn [2]) | impact relative to 576755 in FRET αSyn oligomerization assay (αSyn [1]) |
| --- | --- | --- | --- | --- |
| Cc1c(-c2csc(NC(C(N)=O)C3CCNCC3)n2)sc2ccccc12 (stereo not shown) [Compound 573437, 2-((4-(3-methylbenzo[b]thiophen-2-yl)thiazol-2-yl)amino)-2-(piperidin-4-yl)acetamide] | block αSyn oligomerization | impair αSyn oligomerization | – | – |
| CNC(=O)c1cc(O)ccc1NC [Compound 581858, 2-methylamino-5-hydroxy-N-methylbenzamide] | also active | demonstrated inhibition of αSyn oligomerization | more impact on αSyn oligomerization than 576755 and 581823 | – |
| CNC(=O)c1cc(O)ccc1N [Compound 576755, 2-amino-5-hydroxy-N-methylbenzamide] | block αSyn oligomerization | impair αSyn oligomerization; also recorded: demonstrated inhibition of αSyn oligomerization | – | – |
| CNC(=O)CN(C(=O)Cc1noc2ccccc12)C(C)c1ccc(Cl)cc1 (stereo not shown) [Compound 582032, 2-(benzo[d]isoxazol-3-yl)-N-(1-(4-chlorophenyl)ethyl)-N-(2-(methylamino)-2-oxoethyl)acetamide] | block αSyn oligomerization | impair αSyn oligomerization | – | – |
| CNC(=O)c1cc(O)ccc1O [Compound 583854, 2,5-dihydroxy-N-methylbenzamide] | also active | demonstrated inhibition of αSyn oligomerization | more impact on αSyn oligomerization than 576755 and 581823 | – |
| CNC(=O)c1cc(O)ccc1N(C)C [Compound 581823, 2-dimethylamino-5-hydroxy-N-methylbenzamide] | also active | demonstrated inhibition of αSyn oligomerization | less impact than 576755 | less impact than 576755 |
